How the values were obtained:
human GlyT1c transporter = molecular target: T1, human GlyT1c transporter (Homo sapiens, UniProt P48067); assay: Radioligand binding assay using recombinant CHO cell membranes expressing human GlyT1; conditions: values given as upper bounds, read-out: radioligand binding Kiapp
T1 construct: expressed in transfected cells; host or cells: CHO cells (recombinant; membranes)
T1 sequence (P48067 1-706): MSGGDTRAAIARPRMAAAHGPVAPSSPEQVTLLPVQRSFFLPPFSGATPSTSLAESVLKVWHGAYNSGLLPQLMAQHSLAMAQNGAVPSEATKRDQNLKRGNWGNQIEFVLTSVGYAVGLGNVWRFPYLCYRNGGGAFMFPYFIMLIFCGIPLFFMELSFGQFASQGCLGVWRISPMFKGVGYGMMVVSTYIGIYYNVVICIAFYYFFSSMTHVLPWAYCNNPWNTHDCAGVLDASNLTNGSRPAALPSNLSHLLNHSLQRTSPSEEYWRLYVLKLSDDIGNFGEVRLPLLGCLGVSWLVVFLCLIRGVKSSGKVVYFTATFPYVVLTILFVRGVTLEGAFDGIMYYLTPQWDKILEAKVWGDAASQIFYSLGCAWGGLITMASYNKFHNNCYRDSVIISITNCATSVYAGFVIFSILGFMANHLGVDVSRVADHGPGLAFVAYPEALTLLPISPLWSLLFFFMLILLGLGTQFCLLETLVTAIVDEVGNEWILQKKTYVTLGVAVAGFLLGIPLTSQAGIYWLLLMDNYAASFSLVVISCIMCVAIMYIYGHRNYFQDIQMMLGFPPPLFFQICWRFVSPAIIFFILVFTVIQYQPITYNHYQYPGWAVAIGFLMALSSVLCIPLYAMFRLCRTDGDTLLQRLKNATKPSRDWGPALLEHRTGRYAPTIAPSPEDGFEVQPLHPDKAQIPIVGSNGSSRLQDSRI
Description: 2. Radioligand Binding Assays Using Recombinant CHO Cell Membranes Expressing Human GlyT1:
Radioligand binding to human GlyT1c transporter-expressing membranes was determined as described in Mezler et al., Molecular Pharmacology 74:1705-1715, 2008.

MDR1 (P-gp) = molecular target: T2, MDR1 (P-gp) (Homo sapiens, UniProt P08183); assay: Efflux ratio by bidirectional transport in MDR1-MDCK cells; assay type: in vitro ADME; conditions: dog; MDR1-MDCK monolayers, 1 μM compound, HBSS pH 7.4, 1 h at 37 C; calculated from permeability coefficients
T2 construct: expressed in transfected cells; host or cells: Madin-Darby Canine Kidney Type II cells (MDR1-MDCK)
T2 sequence (P08183 whole entry, species assumed): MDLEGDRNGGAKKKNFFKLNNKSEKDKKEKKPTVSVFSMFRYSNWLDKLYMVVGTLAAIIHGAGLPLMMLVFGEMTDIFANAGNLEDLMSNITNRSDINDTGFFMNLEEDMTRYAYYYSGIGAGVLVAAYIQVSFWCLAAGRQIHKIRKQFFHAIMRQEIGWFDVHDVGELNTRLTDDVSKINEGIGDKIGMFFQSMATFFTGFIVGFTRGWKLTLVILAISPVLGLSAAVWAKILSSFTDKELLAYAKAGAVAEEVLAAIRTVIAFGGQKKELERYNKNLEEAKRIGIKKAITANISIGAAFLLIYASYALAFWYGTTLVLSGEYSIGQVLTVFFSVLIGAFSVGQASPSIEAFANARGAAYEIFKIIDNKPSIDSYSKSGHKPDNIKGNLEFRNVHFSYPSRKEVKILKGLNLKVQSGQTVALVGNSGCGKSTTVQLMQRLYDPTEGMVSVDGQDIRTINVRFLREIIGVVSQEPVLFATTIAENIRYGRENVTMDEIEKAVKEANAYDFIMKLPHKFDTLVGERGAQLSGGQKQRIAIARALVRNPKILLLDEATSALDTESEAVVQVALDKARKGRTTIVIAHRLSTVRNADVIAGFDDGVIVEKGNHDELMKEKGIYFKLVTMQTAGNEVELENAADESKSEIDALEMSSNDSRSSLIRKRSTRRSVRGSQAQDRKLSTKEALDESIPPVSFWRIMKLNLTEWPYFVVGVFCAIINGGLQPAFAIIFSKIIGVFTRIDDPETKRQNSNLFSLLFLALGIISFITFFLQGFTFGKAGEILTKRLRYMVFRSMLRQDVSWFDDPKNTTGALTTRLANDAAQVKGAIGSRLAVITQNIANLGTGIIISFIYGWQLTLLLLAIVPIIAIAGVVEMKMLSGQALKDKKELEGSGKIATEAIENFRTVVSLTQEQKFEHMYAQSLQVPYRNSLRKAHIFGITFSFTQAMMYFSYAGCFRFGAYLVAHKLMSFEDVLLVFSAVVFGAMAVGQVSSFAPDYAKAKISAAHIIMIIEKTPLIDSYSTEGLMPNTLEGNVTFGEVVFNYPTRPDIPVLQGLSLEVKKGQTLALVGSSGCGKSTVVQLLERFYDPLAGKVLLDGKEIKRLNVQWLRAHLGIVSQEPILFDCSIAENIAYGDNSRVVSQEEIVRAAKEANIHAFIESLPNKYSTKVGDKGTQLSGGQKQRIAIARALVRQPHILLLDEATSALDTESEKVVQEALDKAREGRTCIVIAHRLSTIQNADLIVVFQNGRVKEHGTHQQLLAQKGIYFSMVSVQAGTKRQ
Description: 3. Determination of Efflux Ratio Using Madin-Darby Canine Kidney Type II Cells
Bidirectional transport experiments were performed on Madin-Darby Canine Kidney Type II cells over-expressing multidrug resistance protein 1 (MDR1-MDCK) to evaluate the compounds as potential P-gp substrates.
Compounds were added at 1 μM in HBSS-pH 7.4 (hanks balanced salt solution) to either the apical or basolateral side of MDR1-MDCK cell monolayers grown on Millicell 96-Cell polycarbonate filters. Samples were collected from both apical and basolateral sides at time 0 and after 1 h incubation at 37 C, compounds concentrations were measured by HPLC/MS/MS and permeability coefficients were then determined in both transport directions. The efflux ratio was subsequently calculated from the permeability coefficient.

`CN[C@@H]1COc2ccc(CNS(=O)(=O)C3CCC3)cc2[C@@H]1Cc1ccccc1` (relative stereo) [Example 25, cis-Cyclobutanesulfonic acid (4-benzyl-3-methylamino-chroman-6-ylmethyl)-amide] showed a Ki (human GlyT1c transporter) of no more than 100 nM and an efflux ratio at 1 h, 1 μM (MDR1 (P-gp)) of 1.4.
